According to ChEMBL document CHEMBL4184185, “Dihydrobenzisoxazole-4-one compounds are novel selective inhibitors of aldosterone synthase (CYP11B2) with in vivo activity” (Bioorg Med Chem Lett, 2018):
Active and inactive are the calls of the source. The rule behind the calls is not given here.

Key:
[1] = Inhibition of cynomolgus monkey adrenal mitochondrial CYP11B2 using corticosterone as substrate after 60 mins in presence of NADPH by mass spectrometric analysis
[2] = Inhibition of cynomolgus monkey adrenal mitochondrial CYP11B1 using 11-deoxycortisol as substrate after 90 mins in presence of NADPH by mass spectrometric analysis
[3] = molecular target: T1, Steroid 17-alpha-hydroxylase/17,20 lyase (Homo sapiens, UniProt P05093); experiment: Inhibition of CYP17A1 (unknown origin); type: ADME
T1 sequence (P05093 whole entry): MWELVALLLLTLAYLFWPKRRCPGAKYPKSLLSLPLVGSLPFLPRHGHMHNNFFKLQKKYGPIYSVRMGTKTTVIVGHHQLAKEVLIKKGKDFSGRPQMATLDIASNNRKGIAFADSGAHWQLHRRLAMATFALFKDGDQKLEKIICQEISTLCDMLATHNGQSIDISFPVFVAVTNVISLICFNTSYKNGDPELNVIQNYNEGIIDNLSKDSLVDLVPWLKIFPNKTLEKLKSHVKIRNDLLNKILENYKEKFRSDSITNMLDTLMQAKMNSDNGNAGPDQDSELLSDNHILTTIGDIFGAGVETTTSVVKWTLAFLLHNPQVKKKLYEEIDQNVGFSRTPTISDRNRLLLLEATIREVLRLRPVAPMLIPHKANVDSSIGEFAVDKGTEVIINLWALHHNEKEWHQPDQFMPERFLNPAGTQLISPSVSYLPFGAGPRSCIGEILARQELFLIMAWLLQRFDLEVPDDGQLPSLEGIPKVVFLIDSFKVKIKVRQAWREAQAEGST

Macaca fascicularis [4] = species: Macaca fascicularis; experiment: Selectivity index, ratio of IC50 for cynomolgus monkey adrenal mitochondrial CYP11B1 to IC50 for cynomolgus monkey adrenal mitochondrial CYP11B2
[5] = Clearance in human liver microsomes relative to hepatic blood flow; type: ADME, microsome; details: read-out: CLH
Aromatase [6] = molecular target: T2, Aromatase (Homo sapiens, UniProt P11511); experiment: Inhibition of CYP19A1 (unknown origin)
T2 sequence (P11511 whole entry): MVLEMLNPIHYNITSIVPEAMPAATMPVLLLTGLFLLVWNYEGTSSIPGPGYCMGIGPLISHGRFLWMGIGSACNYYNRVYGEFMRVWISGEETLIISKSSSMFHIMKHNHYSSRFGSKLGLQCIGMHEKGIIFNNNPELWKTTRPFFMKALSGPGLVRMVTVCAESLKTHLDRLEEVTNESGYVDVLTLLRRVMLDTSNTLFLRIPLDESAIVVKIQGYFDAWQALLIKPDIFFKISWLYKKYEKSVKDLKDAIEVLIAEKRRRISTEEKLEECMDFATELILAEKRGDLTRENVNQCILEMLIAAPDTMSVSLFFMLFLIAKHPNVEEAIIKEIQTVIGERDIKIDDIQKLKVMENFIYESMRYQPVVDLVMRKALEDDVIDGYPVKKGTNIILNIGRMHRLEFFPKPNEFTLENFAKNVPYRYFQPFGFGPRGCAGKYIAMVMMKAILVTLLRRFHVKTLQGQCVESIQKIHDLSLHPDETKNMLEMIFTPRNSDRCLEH

[7] = molecular target: T3, Cytochrome P450 11B2, mitochondrial (Homo sapiens, UniProt P19099); experiment: Inhibition of recombinant human CYP11B2 expressed in Chinese hamster V79MZ cells assessed as reduction in aldosterone production at 1 uM by mass spectrometric method; type: cell-based
T3 sequence (P19099 whole entry): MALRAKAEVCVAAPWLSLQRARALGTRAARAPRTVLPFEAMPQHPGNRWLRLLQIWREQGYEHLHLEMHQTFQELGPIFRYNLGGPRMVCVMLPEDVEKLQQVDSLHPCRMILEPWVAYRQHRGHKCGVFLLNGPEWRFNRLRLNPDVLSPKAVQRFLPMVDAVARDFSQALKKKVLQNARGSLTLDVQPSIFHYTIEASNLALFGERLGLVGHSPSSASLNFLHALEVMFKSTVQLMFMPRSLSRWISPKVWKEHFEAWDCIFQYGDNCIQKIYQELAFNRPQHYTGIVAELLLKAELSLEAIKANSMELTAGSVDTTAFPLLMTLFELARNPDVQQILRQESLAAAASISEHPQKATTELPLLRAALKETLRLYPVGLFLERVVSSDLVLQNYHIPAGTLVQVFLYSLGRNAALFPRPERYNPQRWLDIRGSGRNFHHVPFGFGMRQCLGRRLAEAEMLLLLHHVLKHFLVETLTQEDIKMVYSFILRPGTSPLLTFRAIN

Macaca fascicularis [8] = species: Macaca fascicularis; experiment: Inhibition of cynomolgus monkey adrenal mitochondrial CYP11B2 at 1 uM using corticosterone as substrate after 60 mins in presence of NADPH by mass spectrometric analysis
[9] = molecular target: T3, Cytochrome P450 11B2, mitochondrial; experiment: Inhibition of recombinant human CYP11B2 expressed in Chinese hamster V79MZ cells assessed as reduction in aldosterone production at 20 uM by mass spectrometric method; type: cell-based
Aromatase [10] = molecular target: T2, Aromatase; experiment: Inhibition of CYP19A1 (unknown origin) at 20 uM
Cytochrome P450 2C9 = Cytochrome P450 2C9 (Homo sapiens, UniProt P11712); experiment: Inhibition of CYP2C9 (unknown origin) at 30 uM; type: ADME
Chain of Cytochrome P450 2C9 (P11712 whole entry): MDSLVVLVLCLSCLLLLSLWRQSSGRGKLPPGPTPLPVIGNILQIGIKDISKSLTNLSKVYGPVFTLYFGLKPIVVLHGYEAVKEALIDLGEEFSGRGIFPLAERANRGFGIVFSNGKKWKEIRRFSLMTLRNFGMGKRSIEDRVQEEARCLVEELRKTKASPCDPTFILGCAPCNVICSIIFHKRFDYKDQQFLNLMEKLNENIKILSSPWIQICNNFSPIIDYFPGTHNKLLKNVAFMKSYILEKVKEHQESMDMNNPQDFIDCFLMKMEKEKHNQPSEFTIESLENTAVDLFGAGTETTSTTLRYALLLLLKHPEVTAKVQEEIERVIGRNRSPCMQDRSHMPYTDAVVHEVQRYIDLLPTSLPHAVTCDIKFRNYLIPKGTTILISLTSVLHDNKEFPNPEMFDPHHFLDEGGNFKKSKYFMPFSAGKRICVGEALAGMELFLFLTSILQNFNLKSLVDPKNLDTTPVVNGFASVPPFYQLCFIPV

Cytochrome P450 2D6 = Cytochrome P450 2D6 (Homo sapiens, UniProt P10635); experiment: Inhibition of CYP2D6 (unknown origin) at 30 uM; type: ADME
Chain of Cytochrome P450 2D6 (P10635 whole entry): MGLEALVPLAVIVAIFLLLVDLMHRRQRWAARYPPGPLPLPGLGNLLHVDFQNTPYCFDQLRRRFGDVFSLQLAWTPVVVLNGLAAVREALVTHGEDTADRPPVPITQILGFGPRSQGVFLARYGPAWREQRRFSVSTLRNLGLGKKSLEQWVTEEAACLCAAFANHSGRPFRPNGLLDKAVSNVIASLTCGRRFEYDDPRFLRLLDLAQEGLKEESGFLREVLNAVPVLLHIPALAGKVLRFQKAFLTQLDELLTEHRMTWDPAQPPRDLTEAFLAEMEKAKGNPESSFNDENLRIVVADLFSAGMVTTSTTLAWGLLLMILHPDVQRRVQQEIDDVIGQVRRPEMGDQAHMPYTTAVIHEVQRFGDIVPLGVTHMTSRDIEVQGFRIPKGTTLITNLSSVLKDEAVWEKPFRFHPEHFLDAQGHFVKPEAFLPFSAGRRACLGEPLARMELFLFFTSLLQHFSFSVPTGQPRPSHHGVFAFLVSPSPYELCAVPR

Cytochrome P450 3A4 = Cytochrome P450 3A4 (Homo sapiens, UniProt P08684); experiment: Inhibition of CYP3A4 (unknown origin) at 30 uM; type: ADME
Chain of Cytochrome P450 3A4 (P08684 whole entry): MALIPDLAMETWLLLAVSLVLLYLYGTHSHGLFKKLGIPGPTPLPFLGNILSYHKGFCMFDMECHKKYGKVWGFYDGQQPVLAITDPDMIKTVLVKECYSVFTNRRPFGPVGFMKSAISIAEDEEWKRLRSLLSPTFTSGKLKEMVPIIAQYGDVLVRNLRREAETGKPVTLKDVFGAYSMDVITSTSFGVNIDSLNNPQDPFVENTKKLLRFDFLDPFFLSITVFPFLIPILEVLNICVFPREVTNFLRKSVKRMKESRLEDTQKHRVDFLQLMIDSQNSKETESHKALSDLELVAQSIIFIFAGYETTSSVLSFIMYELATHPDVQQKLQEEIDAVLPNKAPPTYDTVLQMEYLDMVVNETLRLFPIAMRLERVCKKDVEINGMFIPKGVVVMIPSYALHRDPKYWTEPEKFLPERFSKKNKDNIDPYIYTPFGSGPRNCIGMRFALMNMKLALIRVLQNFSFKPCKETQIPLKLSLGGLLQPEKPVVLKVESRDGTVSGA

[11] = Clearance in human hepatocytes relative to hepatic blood flow; type: ADME, cell-based, Hepatocyte; details: read-out: CLH
[12] = Drug metabolism in human hepatocytes assessed as parent compound remaining at 10 uM after 30 mins by LC-MS/MS analysis; type: ADME, cell-based, Hepatocyte; details: read-out: Stability
[13] = Clearance in Wistar Han rat hepatocytes relative to hepatic blood flow; type: ADME, cell-based, Hepatocyte; details: read-out: CLH
[14] = Clearance in cynomolgus monkey hepatocytes relative to hepatic blood flow; type: ADME, cell-based, Macaca fascicularis, Hepatocyte; details: read-out: CLH
[15] = Clearance in Beagle dog hepatocytes relative to hepatic blood flow; type: ADME, cell-based, Canis lupus familiaris, Hepatocyte; details: read-out: CLH
Rattus norvegicus = experiment: Clearance in iv dosed Wistar Han rat relative to hepatic blood flow; type: ADME, organism-based; details: in vivo
Cynomolgus monkey = experiment: Clearance in iv dosed cynomolgus monkey relative to hepatic blood flow; type: ADME, organism-based, Macaca fascicularis; details: in vivo
Canis familiaris = experiment: Clearance in iv dosed Beagle dog relative to hepatic blood flow; type: ADME, organism-based, Canis lupus familiaris; details: in vivo
[16] = Oral bioavailability in Wistar Han rat; type: ADME, organism-based; details: in vivo
[17] = Oral bioavailability in Beagle dog; type: ADME, organism-based, Canis lupus familiaris; details: in vivo
[18] = molecular target: T3, Cytochrome P450 11B2, mitochondrial; experiment: Inhibition of recombinant human CYP11B2 expressed in Chinese hamster V79MZ cells assessed as reduction in aldosterone production by mass spectrometric method; type: cell-based
[19] = Drug metabolism in human hepatocytes at 10 uM after 30 mins by LC-MS/MS analysis; type: ADME, cell-based, Hepatocyte; details: read-out: Drug metabolism
[20] = Drug metabolism in human hepatocytes assessed as 3-Amino-2-[2-(4-fluoro-phenyl)-acetyl]-5,5-dimethyl-cyclohex-2-enone metabolite formation at 10 uM after 30 mins by LC-MS/MS analysis; type: ADME, cell-based, Hepatocyte; details: 0.5 h
[21] = Drug metabolism in human hepatocytes assessed as 3-Amino-2-[2-(4-fluoro-phenyl)-acetyl]-5,5-dimethyl-cyclohex-2-enone metabolite formation at 10 uM after 30 mins by HPLC analysis; type: ADME, cell-based, Hepatocyte; details: 0.5 h
[22] = Drug metabolism in human hepatocytes assessed as 3-(4-fluorobenzyl)-6,6-dimethyl-4,5,6,7-tetrahydrobenzo[c]isoxazol-4-ol formation at 10 uM after 30 mins by LC-MS/MS analysis; type: ADME, cell-based, Hepatocyte; details: 0.5 h
[23] = molecular target: T1, Steroid 17-alpha-hydroxylase/17,20 lyase; experiment: Inhibition of CYP17A1 (unknown origin) at 20 uM; type: ADME

| pIC50 [1] | pIC50 [2] | Ratio IC50 (Macaca fascicularis [4]) | hepatic extraction ratio [5] | Structure (SMILES) | also measured |
| --- | --- | --- | --- | --- | --- |
| 7.7 | 7.4 | – | – | N#Cc1ccc([C@H]2CCc3cncn32)c(F)c1 [OSILODROSTAT] | IC50 [3]: 3.98 µM |
| 6.1 | 4.6 | 32 | 0.73 | O=C1CCCc2noc(Cc3ccccc3)c21 | – |
| 7.8 | 5.8 | 95 | 0.86 | COc1ccc(Cc2onc3c2C(=O)CC(C)(C)C3)cc1 | IC50 [3]: > 31.6 µM; IC50 (Aromatase [6]): > 31.6 µM |
| < 6 | – | – | – | CC1(C)CC(=O)c2c(n[nH]c2Cc2ccc(C#N)cc2)C1 | inhibition at 1 µM [7]: 54% |
| – | – | – | – | CC1(C)Cc2noc(Cc3ccc(F)cc3)c2C(O)C1 (centres undefined) | inhibition (Macaca fascicularis [8]): inactive |
| 5.3 | – | – | – | Clc1ccc(-c2ccn[nH]2)cc1Cl | inhibition (INH) [9]: Not Active |
| 6.8 | 5.6 | 15 | 0.83 | N#Cc1ccc(Cc2onc3c2C(=O)CC(C2CC2)C3)cc1 (centres undefined) | – |
| < 4.7 | – | – | – | Clc1ccc(-c2ccno2)cc1Cl | inhibition (INH) [9]: Not Active |
| 7 | 5 | 160 | < 0.24 | CC1(C)CC(=O)c2c(noc2Cc2ccc(C(=O)N3CC[C@@H](O)C3)cc2)C1 | IC50 (Aromatase [6]): > 20 µM; inhibition (INH) (Aromatase [10]): Not Active; inhibition (INH) (Cytochrome P450 2C9): Not Active; inhibition (INH) (Cytochrome P450 2D6): Not Active; inhibition (INH) (Cytochrome P450 3A4): Not Active; hepatic extraction ratio [11]: < 0.24; remaining at 0.5 h, 10 µM [12]: 98%; hepatic extraction ratio [13]: 0.52; hepatic extraction ratio [14]: 0.28; hepatic extraction ratio [15]: < 0.3; CL (Rattus norvegicus): 31%; CL (Cynomolgus monkey): 75%; CL (Canis familiaris): 35%; bioavailability [16]: 11%; bioavailability [17]: 85% |
| 7.2 | – | – | – | Clc1ccc(-n2ccnc2)cc1Cl | inhibition (INH) [9]: Not Active |
| 7.6 | 5.5 | 130 | 0.73 | CC1CC(=O)c2c(noc2Cc2ccccc2)C1 (centres undefined) | – |
| 6.8 | 5 | 64 | < 0.24 | CN1CCN(C(=O)c2ccc(Cc3onc4c3C(=O)CC(C)(C)C4)cc2)CC1=O | IC50 (Aromatase [6]): > 31.6 µM; inhibition (INH) (Aromatase [10]): Not Active; inhibition (INH) (Cytochrome P450 2C9): Not Active; inhibition (INH) (Cytochrome P450 2D6): Not Active; inhibition (INH) (Cytochrome P450 3A4): Not Active; hepatic extraction ratio [11]: 0.41 |
| 7 | 4.8 | 150 | 0.33 | CC1(C)CC(=O)c2c(noc2Cc2ccc(C(N)=O)cc2)C1 | IC50 (Aromatase [6]): > 20 µM; inhibition (INH) (Aromatase [10]): Not Active; inhibition (INH) (Cytochrome P450 2C9): Not Active; inhibition (INH) (Cytochrome P450 2D6): Not Active; inhibition (INH) (Cytochrome P450 3A4): Not Active; hepatic extraction ratio [11]: 0.33; remaining at 0.5 h, 10 µM [12]: 55%; hepatic extraction ratio [13]: 0.6; hepatic extraction ratio [14]: 0.22; CL (Rattus norvegicus): 62%; CL (Cynomolgus monkey): 57%; bioavailability [16]: 8% |
| 7.1 | 4.1 | 940 | 0.55 | CC1(C)CC(=O)c2c(noc2Cc2ccc(C#N)cc2)C1 | inhibition (INH) [18]: Active |
| 6.8 | 4.7 | 130 | < 0.24 | CC1(C)CC(=O)c2c(noc2Cc2ccc(F)cc2)C1 | hepatic extraction ratio [11]: 0.91; metabolised at 0.5 h, 10 µM [19]: 72%; Drug metabolism [20]: Metabolite_Detected; Drug metabolism [21]: Metabolite_Detected; Drug metabolism [22]: Metabolite_Detected; remaining at 0.5 h, 10 µM [12]: 28% |
| 6.7 | 5.1 | 39 | 0.38 | CC1CC(=O)c2c(noc2Cc2ccc(C#N)cc2)C1 (centres undefined) | – |
| 7.1 | 5.4 | 42 | < 0.24 | CC1(C)CC(=O)c2c(noc2Cc2ccc(S(C)(=O)=O)cc2)C1 | IC50 [3]: > 31.6 µM; hepatic extraction ratio [11]: 0.59 |
| 7.1 | 5.1 | 100 | 0.64 | CC1(C)CC(=O)c2c(noc2Cc2ccccc2)C1 | IC50 [1]: 0.079 µM; inhibition (INH) [18]: Active; IC50 [3]: > 31.6 µM; IC50 (Aromatase [6]): > 31.6 µM; inhibition (INH) [23]: Not Active; inhibition (INH) (Aromatase [10]): Not Active; inhibition (INH) (Cytochrome P450 2C9): Not Active; inhibition (INH) (Cytochrome P450 2D6): Not Active; inhibition (INH) (Cytochrome P450 3A4): Not Active |
| < 6 | 4.3 | < 53 | 0.85 | CC1(C)CC(=O)c2c(noc2-c2ccccc2)C1 | IC50 [3]: > 31.6 µM |
| 7 | – | – | – | CC1(C)CC(=O)c2c(ncn2Cc2ccccc2)C1 | – |
| – | – | – | – | CC1(C)CC(=O)C(C(=O)Cc2ccc(F)cc2)=C(N)C1 | inhibition (Macaca fascicularis [8]): inactive |
| 8.4 | 6 | 230 | – | CN1C(=O)CCc2cc(-c3cccnc3)ccc21 | IC50 [3]: 0.316 µM; IC50 (Aromatase [6]): 0.1 µM |
| 6.8 | 5.5 | 17 | 0.37 | CC1(C)CCc2c(noc2Cc2ccc(C#N)cc2)C1 | – |
